22 molecules from patent US11999746B2, “Compounds” (GlaxoSmithKline Intellectual Property Development Limited, priority 2014, dated 2024) can be followed below.

SMILES strings stand for the structures. Counter-ions that a name gives are not always drawn.

The target in test [1] is T1, recombinant human Lp-PLA2 (Homo sapiens, UniProt Q13093).
T1 sequence (Q13093 22-441): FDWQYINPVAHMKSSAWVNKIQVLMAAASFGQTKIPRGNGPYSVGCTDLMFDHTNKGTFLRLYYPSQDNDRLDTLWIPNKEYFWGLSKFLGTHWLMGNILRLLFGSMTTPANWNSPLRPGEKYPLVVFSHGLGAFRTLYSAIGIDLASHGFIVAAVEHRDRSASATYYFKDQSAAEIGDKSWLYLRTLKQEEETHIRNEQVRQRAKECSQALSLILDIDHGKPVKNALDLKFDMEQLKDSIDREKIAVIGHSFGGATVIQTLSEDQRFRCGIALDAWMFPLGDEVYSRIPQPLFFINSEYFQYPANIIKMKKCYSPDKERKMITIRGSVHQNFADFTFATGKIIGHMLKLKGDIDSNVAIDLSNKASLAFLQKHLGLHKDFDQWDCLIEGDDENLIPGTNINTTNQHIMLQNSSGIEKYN
Briefly: (1b) hrThioPAF assay, recombinant human Lp-PLA2. The conditions noted are these: Examples 266-412 were tested here, one experiment or average of multiple experiments, read-out: rhLp-PLA2 (pIC50) (converted). The class given is biochemical. In outline: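 Fluorogenic assay: 20 pM rhLp-PLA2 in 50 mM HEPES pH 7.4, 150 mM NaCl, 1 mM CHAPS with 1:3 serially diluted compounds; substrate mix of 40 μM 2-thio-PAF, 40 μM CPM, 400 μM NEM (pre-addition levels). 20 min at 25 °C in the dark; fluorescence ex 380/em 485 nm, pIC50 by curve fitting.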

In test [2] the target is T2, Lp-PLA2 in human plasma (Homo sapiens, UniProt Q13093).
T2 construct: from tissue; host or cells: pooled human plasma
T2 sequence (Q13093 22-441): T1 sequence (Q13093 22-441)
Briefly: (3b) Lp-PLA2 human plasma alternative Thio-PAF assay. The class given is biochemical. The conditions noted are these: (3b) alternative Thio-PAF assay, pooled human plasma; Examples of 266-412 were tested here; read-out: pIC50 in the Lp-PLA2 human plasma assay (converted). The method in brief: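 Pooled human plasma was preincubated with compound for 15 min at RT. Substrate solution (2 mM 2-thio-PAF, 52 μM CPM, 2.5 mM NEM in 50 mM HEPES pH 7.4, 150 mM NaCl, 1 mM CHAPS; pre-addition concentrations) was added, and the reaction was quenched with 5% TFA after 3 min. Fluorescence was read at ex 380/em 485 nm and fitted to give pIC50.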

For `O=c1nc(OCc2cc(F)c(Oc3cncc(C(F)(F)F)c3)c(F)c2)cc2n1CC1(CCOCC1)N2` [Example 401, 7-((3,5-Difluoro-4-((5-(trifluoromethyl)pyridin-3-yl)oxy)benzyl)oxy)-2′,3′,5′,6′-tetrahydro-1H-spiro[imidazo[1,2-c]pyrimidine-2,4′-pyran]-5(3H)-one], the IC50 is 0.631 nM in test [1] and ≤ 100 nM in test [2].

For the molecule `O=C1CN2c3cc(OCc4cc(F)c(Oc5ccnc(C(F)(F)F)c5)c(F)c4)nc(=O)n3CC2CN1` (centres unmarked) [Example E351, 7-((3,5-Difluoro-4-((2-(trifluoromethyl)pyridin-4-yl)oxy)benzyl)oxy)-11,11a-dihydro-1H-pyrazino[1′,2′:3,4]imidazo[1,2-c]pyrimidine-3,9(2H,4H)-dione], the results for the IC50 in test [1] and in test [2] were ≤ 1 nM and ≤ 100 nM, respectively.

For `CCN1CCN2c3cc(OCc4ccc(F)c(C#N)c4)nc(=O)n3CC2C1` (centres unmarked) [Example E280, 5-(((2-Ethyl-9-oxo-2,3,4,9,11,11a-hexahydro-1H-pyrazino[1′,2′:3,4]imidazo[1,2-c]pyrimidin-7-yl)oxy)methyl)-2-fluorobenzonitrile], the figures for the IC50 in test [1] and in test [2] were ≤ 10000 nM and ≤ 100 nM, respectively.

As to `O=c1nc(OCc2ccc(F)c(F)c2)cc2n1CC1CNCCN21` (centres unmarked) [Example E274, 7-((3,4-Difluorobenzyl)oxy)-3,4,11,11a-tetrahydro-1H-pyrazino[1′,2′:3,4] imidazo [1,2-c]pyrimidin-9(2H)-one], the IC50 in test [1] and in test [2] was ≤ 100 nM in each case.

`CC(C)C(=O)N1CCN2c3cc(OCc4ccc(F)c(C#N)c4)nc(=O)n3CC2C1` (centres unmarked) [Example E290, 2-Fluoro-5-(((2-isobutyryl-9-oxo-2,3,4,9,11,11a-hexahydro-1H-pyrazino[1′,2′:3,4]imidazo[1,2-c]pyrimidin-7-yl)oxy)methyl)benzonitrile 2,2,2-trifluoroacetate]: the IC50 was ≤ 10000 nM in test [1] and ≤ 100 nM in test [2].

For `N[C@H]1C[C@H]2Cn3c(cc(OCc4cc(F)c(Oc5ccnc(C(F)(F)F)c5)c(F)c4)nc3=O)N2C1` [Example E390, (7S,8aS)-7-Amino-3-((3,5-difluoro-4-((2-(trifluoromethyl)pyridin-4-yl)oxy)benzyl)oxy)-7,8,8a,9-tetrahydropyrrolo[1′,2′:3,4]imidazo[1,2-c]pyrimidin-1(6H)-one], the IC50 is ≤ 10000 nM in test [1] and ≤ 100 nM in test [2].

Turning to `CCS(=O)(=O)N1CCN2c3cc(OCc4ccc(F)c(C#N)c4)nc(=O)n3CC2C1` (centres unmarked) [Example E283, 5-(((2-(Ethylsulfonyl)-9-oxo-2,3,4,9,11,11a-hexahydro-1H-pyrazino[1,2′:3,4]imidazo[1,2-c]pyrimidin-7-yl)oxy)methyl)-2-fluorobenzonitrile], the IC50 was ≤ 10000 nM in test [1] and ≤ 100 nM in test [2].

For `Cc1ccc(Oc2c(F)cc(COc3cc4n(c(=O)n3)CC3CN(C)CCN43)cc2F)cn1` (centres unmarked) [Example E321, 7-((3,5-Difluoro-4-((6-methylpyridin-3-yl)oxy)benzyl)oxy)-2-methyl-3,4,11,11a-tetrahydro-1Hpyrazino[1′,2′:3,4]imidazo[1,2-c]pyrimidin-9(2H)-one], the IC50 is ≤ 10000 nM in test [1] and ≤ 100 nM in test [2].

For `O=C([C@@H]1CC(F)(F)CN1)N1CCN2c3cc(OCc4ccc(F)c(F)c4)nc(=O)n3CC2C1` (stereo partly drawn) [Example E342, 7-((3,4-Difluorobenzyl)oxy)-2-((S)-4,4-difluoropyrrolidin-2-carbonyl)-3,4,11,11a-tetrahydro-1H-pyrazino[1,2′:3,4]imidazo[1,2-c]pyrimidin-9(2H)-one], the values for the IC50 in test [1] and in test [2] were ≤ 10000 nM and ≤ 100 nM, respectively.

Take `CNC1(C(=O)N2CCN3c4cc(OCc5ccc(F)c(F)c5)nc(=O)n4CC3C2)CC1` (centres unmarked) [Example E308, 7-((3,4-Difluorobenzyl)oxy)-2-(1-(methylamino)cyclopropanecarbonyl)-3,4,11,11a-tetrahydro-1H-pyrazino[1′,2′:3,4]imidazo[1,2-c]pyrimidin-9(2H)-one]: the IC50 in test [1] was ≤ 10000 nM; in test [2], ≤ 100 nM.

As for `N#Cc1cc(COc2cc3n(c(=O)n2)CC2CN(C(=O)C4CCC4)CCN32)ccc1F` (centres unmarked) [Example E302, 5-(((2-(Cyclobutanecarbonyl)-9-oxo-2,3,4,9,11,11a-hexahydro-1H-pyrazino[1′,2′:3,4]imidazo[1,2-c]pyrimidin-7-yl)oxy)methyl)-2-fluorobenzonitrile], the IC50 in test [1] is ≤ 10000 nM; in test [2] it was ≤ 100 nM.

As to `CN(C)CC(=O)N1CCN2c3cc(OCc4ccc(F)c(C#N)c4)nc(=O)n3CC2C1` (centres unmarked) [Example E284, 5-(((2-(2-(Dimethylamino)acetyl)-9-oxo-2,3,4,9,11,11a-hexahydro-1H-pyrazino[1,2′:3,4]imidazo[1,2-c]pyrimidin-7-yl)oxy)methyl)-2-fluorobenzonitrile], the IC50 in test [1] was ≤ 10000 nM; in test [2] it was ≤ 100 nM.

`CC(=O)N1CCN2c3cc(OCc4cc(F)c(Oc5ccc(C)nc5)c(F)c4)nc(=O)n3CC2C1` (centres unmarked) [Example E299, 2-Acetyl-7-((3,5-difluoro-4-((6-methylpyridin-3-yl)oxy)benzyl)oxy)-3,4,11,11a-tetrahydro-1H-pyrazino[1′,2′:3,4]imidazo[1,2-c]pyrimidin-9(2H)-one]: the IC50 was ≤ 10000 nM in test [1] and ≤ 100 nM in test [2].

As to `N#Cc1cc(COc2cc3n(c(=O)n2)CC2CS(=O)(=O)CCN32)ccc1F` (centres unmarked) [Example E367, 5-(((2,2-Dioxido-9-oxo-1,3,4,9,11,11a-hexahydropyrimido[6′,1′:2,3]imidazo[5,1-c][1,4]thiazin-7-yl)oxy)methyl)-2-fluorobenzonitrile], the IC50 in test [1] was ≤ 10000 nM; in test [2], ≤ 100 nM.

On to `CC(C)C(=O)C(=O)N1CCN2c3cc(OCc4ccc(F)c(F)c4)nc(=O)n3CC2C1` (centres unmarked) [Example E303, 1-(7-((3,4-Difluorobenzyl)oxy)-9-oxo-3,4,11,11a-tetrahydro-1H-pyrazino[1′,2′:3,4]imidazo[1,2-c]pyrimidin-2(9H)-yl)-3-methylbutane-1,2-dione], for which the IC50 in test [1] was ≤ 10000 nM; in test [2], ≤ 100 nM.

With `Cc1ccc(Oc2c(F)cc(COc3cc4n(c(=O)n3)CC3CN(C)C(=O)CN43)cc2F)cn1` (centres unmarked) [Example E360, 7-((3,5-difluoro-4-((6-methylpyridin-3-yl)oxy)benzyl)oxy)-2-methyl-11,11a-dihydro-1H-pyrazino[1′,2′:3,4]imidazo[1,2-c]pyrimidine-3,9(2H,4H)-dione, trifluoroacetic acid salt], the IC50 in test [1] was ≤ 10000 nM; in test [2], ≤ 100 nM.

As for `Cc1ccc(Oc2c(F)cc(COc3cc4n(c(=O)n3)CC3(COC3)N4C)cc2F)cn1` [Example 400, 7-((3,5-Difluoro-4-((6-methylpyridin-3-yl)oxy)benzyl)oxy)-1-methyl-1H-spiro[imidazo[1,2-c]pyrimidine-2,3′-oxetan]-5(3H)-one], the IC50 is ≤ 10000 nM in test [1] and ≤ 100 nM in test [2].

In the case of `O=c1nc(OCc2ccc(F)c(F)c2)cc2n1CC1CN(S(=O)(=O)C3CC3)CCN21` (centres unmarked) [Example E331, 2-(Cyclopropylsulfonyl)-7-((3,4-difluorobenzyl)oxy)-3,4,11,11a-tetrahydro-1H-pyrazino[1′,2′:3,4]imidazo[1,2-c]pyrimidin-9(2H)-one], the IC50 in test [1] was ≤ 10000 nM; in test [2], ≤ 100 nM.

As for `CN(C)C(=O)N1CCN2c3cc(OCc4ccc(F)c(F)c4)nc(=O)n3CC2C1` (centres unmarked) [Example E301, 7-((3,4-Difluorobenzyl)oxy)-N,N-dimethyl-9-oxo-3,4,11,11a-tetrahydro-1H-pyrazino[1′,2′:3,4]imidazo[1,2-c]pyrimidine-2(9H)-carboxamide], the IC50 in test [1] was ≤ 10000 nM; in test [2] it was ≤ 100 nM.

As for `CCOC(=O)N1CCN2c3cc(OCc4ccc(F)c(F)c4)nc(=O)n3CC2C1` (centres unmarked) [Example E306, Ethyl 7-((3,4-difluorobenzyl)oxy)-9-oxo-3,4,11,11a-tetrahydro-1H-pyrazino[1′,2′:3,4]imidazo[1,2-c]pyrimidine-2(9H)-carboxylate], the IC50 in test [1] is ≤ 10000 nM; in test [2], ≤ 100 nM.

`O=c1nc(OCc2cc(F)c(Oc3ccnc(C(F)(F)F)c3)c(F)c2)cc2n1C[C@H]1C[C@@H](O)CN21` [Example E384, (7R,8aR)-3-((3,5-Difluoro-4-((2-(trifluoromethyl)pyridin-4-yl)oxy)benzyl)oxy)-7-hydroxy-7,8,8a,9-tetrahydropyrrolo[1′,2′:3,4]imidazo[1,2-c]pyrimidin-1(6H)-one]: the figures for the IC50 in test [1] and in test [2] were ≤ 10000 nM and ≤ 100 nM, respectively.

With `CC(C)(N)C(=O)N1CCN2c3cc(OCc4ccc(F)c(F)c4)nc(=O)n3CC2C1` (centres unmarked) [Example E335, 2-(2-Amino-2-methylpropanoyl)-7-((3,4-difluorobenzyl)oxy)-3,4,11,11a-tetrahydro-1H-pyrazino[1,2′:3,4]imidazo[1,2-c]pyrimidin-9(2H)-one], the IC50 was ≤ 10000 nM in test [1] and ≤ 100 nM in test [2].
